According to ChEMBL document CHEMBL4699491, “Identification of TNO155, an Allosteric SHP2 Inhibitor for the Treatment of Cancer” (J Med Chem, 2020):
In brackets after ≈: the same amount, converted by molar mass. One block for each molecule: values may come before it.

Legend:
KYSE-520 cell line = experiment: Antiproliferative activity against human KYSE-520 cells; type: functional, cell-based
[1] = Toxicity in mouse 3T3 cells under irradiation by NRU phototoxicity test; type: cell-based
physchem [2] = conditions: octanol/water
Description: Distribution coefficient, logD of the compound

[3] = target: T1, Tyrosine-protein phosphatase non-receptor type 11 (Homo sapiens, UniProt Q06124)
T1 sequence (Q06124 whole entry): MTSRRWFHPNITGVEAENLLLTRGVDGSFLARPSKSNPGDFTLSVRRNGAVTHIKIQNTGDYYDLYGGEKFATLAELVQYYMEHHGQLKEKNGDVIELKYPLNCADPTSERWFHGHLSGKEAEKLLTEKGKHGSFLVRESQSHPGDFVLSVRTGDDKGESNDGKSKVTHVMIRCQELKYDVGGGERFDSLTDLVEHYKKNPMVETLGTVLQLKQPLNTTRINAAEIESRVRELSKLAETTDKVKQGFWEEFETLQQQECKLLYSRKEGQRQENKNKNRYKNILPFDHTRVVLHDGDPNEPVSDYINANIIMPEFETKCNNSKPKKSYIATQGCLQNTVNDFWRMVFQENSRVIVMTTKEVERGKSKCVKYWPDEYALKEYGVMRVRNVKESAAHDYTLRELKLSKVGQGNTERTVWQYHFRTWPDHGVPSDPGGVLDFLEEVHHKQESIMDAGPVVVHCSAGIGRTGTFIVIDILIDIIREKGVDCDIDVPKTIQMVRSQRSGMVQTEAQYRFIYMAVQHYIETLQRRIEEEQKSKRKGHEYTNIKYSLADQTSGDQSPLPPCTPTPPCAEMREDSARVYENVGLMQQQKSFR
Description: Allosteric inhibition of human SHP2 in human KYSE-520 cells assessed as reduction in ERK1/2 phosphorylation by fluorescence based assay

[4] = target: Voltage-gated inwardly rectifying potassium channel KCNH2 (Homo sapiens, UniProt Q12809)
Voltage-gated inwardly rectifying potassium channel KCNH2, sequence (Q12809 whole entry): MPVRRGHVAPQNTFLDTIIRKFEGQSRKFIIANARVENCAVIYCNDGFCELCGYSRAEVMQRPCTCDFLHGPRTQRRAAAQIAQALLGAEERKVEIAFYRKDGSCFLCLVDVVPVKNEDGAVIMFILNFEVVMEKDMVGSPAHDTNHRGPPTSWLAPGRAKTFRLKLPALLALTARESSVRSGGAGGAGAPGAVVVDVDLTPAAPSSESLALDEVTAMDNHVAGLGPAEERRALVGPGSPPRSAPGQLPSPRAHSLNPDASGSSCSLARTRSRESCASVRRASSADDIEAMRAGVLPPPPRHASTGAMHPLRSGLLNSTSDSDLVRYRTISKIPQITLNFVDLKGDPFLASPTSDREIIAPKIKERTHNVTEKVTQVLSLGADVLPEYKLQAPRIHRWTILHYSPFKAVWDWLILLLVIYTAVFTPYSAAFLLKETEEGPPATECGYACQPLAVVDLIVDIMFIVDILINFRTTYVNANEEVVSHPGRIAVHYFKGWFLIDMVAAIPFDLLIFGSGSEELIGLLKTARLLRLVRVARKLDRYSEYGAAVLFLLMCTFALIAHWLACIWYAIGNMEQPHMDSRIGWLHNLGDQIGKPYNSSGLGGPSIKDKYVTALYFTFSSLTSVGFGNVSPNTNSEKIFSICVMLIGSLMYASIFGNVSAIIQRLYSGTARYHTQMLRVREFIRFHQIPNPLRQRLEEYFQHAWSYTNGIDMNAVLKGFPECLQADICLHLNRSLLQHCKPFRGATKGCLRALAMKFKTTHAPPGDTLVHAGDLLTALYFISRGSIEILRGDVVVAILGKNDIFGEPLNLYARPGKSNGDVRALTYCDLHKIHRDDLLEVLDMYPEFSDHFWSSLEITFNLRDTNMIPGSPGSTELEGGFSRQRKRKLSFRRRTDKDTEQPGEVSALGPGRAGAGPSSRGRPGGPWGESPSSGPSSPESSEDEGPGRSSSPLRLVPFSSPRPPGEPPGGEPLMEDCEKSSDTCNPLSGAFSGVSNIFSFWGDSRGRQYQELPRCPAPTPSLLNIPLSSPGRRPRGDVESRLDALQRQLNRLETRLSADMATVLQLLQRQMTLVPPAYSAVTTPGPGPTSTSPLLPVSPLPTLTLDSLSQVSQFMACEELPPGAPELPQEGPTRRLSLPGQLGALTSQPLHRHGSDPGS
Description: Inhibition of human ERG by Q-patch assay

physchem [5] = conditions: aqueous, pH 6.8
Description: Aqueous solubility of the compound at pH 6.8

physchem [6] = conditions: octanol/water; remark: listed apart in the source
Description: Lipophilicity, logP of the compound

[7] = target: T2, Tyrosine-protein phosphatase non-receptor type 11 (Homo sapiens) (UniProt Q06124); conditions: filed as negative allosteric modulator
T2 sequence (whole entry): T1 sequence (Q06124 whole entry)

[8] = octanol/water
Description: Lipophilicity, logP of the compound

[9] = target: Serine/threonine-protein kinase B-raf (Homo sapiens, UniProt P15056); experiment: Inhibition of RAF in human A-375 cells assessed as reduction in p-ERK levels; type: cell-based
Serine/threonine-protein kinase B-raf, sequence (P15056 whole entry): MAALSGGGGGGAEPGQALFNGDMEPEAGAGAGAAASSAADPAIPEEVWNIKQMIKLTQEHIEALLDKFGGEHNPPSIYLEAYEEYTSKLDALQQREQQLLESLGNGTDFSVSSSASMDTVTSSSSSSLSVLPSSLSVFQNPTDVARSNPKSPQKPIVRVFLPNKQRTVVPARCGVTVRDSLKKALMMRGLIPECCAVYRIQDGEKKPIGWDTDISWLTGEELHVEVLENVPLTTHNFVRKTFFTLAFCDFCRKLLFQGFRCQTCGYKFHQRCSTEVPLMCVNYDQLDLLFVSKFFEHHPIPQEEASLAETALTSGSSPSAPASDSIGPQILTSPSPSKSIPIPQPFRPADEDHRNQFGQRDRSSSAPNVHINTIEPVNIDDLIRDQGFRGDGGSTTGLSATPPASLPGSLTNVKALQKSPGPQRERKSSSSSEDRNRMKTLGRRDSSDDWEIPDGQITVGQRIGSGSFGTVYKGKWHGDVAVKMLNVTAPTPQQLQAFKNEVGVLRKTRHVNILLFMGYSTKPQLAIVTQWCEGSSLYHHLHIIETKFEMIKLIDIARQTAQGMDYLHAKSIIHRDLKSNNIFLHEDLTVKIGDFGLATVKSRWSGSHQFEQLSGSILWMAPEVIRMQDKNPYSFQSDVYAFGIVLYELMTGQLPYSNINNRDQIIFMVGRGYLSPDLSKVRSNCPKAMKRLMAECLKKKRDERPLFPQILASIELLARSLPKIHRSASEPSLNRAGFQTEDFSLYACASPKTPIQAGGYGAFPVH

A-375 = experiment: Antiproliferative activity against human A-375 cells; type: functional, cell-based
[10] = target: T1, Tyrosine-protein phosphatase non-receptor type 11; experiment: Allosteric inhibition of 6x-histidine tagged human SHP2 (Met1-L525 residues) expressed in Escherichia coli BL21 Star (DE3) using IRS1_pY1172(dPEG8)[…] incubated for 30 mins by fluorescence based DIFMUP assay

SMILES: CC(=O)Nc1cccc(-n2c(=O)n(C3CC3)c(=O)c3c(Nc4ccc(I)cc4F)n(C)c(=O)c(C)c32)c1 [TRAMETINIB]
IC50 (KYSE-520 cell line; Homo sapiens, KYSE-520): 10 nM

SMILES: CC1(N)CCN(c2cnc(Sc3cccc(Cl)c3Cl)c(N)n2)CC1
IC50 [1]: 16200 nM
logD (physchem [2]): 1.1
IC50 [3]: 195 nM
IC50 [4]: 2800 nM
solubility (physchem [5]): 7 µM (≈ 2.69 µg/mL)
IC50 (KYSE-520 cell line; kyse-520): 4070 nM
logP (physchem [6]): 3.6

IC50 [3]: 89 nM
SMILES: CC1(CN)CCN(c2cnc(Sc3cccc(N)c3Cl)c(N)n2)CC1

SMILES: CC1(N)CCN(c2cnc(-c3cccc(Cl)c3Cl)c(N)n2)CC1
ΔTm [7]: 7.5 °C
IC50 [1]: 4500 nM
logD (physchem [2]): 0.92
logP [8]: 2.6
solubility (physchem [5]): 290 µM (≈ 102 µg/mL)
IC50 (KYSE-520 cell line; Homo sapiens, KYSE-520): 2500 nM

SMILES: Cc1ccc(NC(=O)c2ccnc(C(F)(F)F)c2)cc1-c1cc(OCCO)nc(N2CCOCC2)c1 [NAPORAFENIB]
IC50 [9]: 78 nM
IC50 (A-375): 240 nM

SMILES: CC1(CN)CCN(c2cnc(Sc3cccnc3C(F)(F)F)c(N)n2)CC1
IC50 (KYSE-520 cell line; Homo sapiens, KYSE-520): 4050 nM

SMILES: CC1(CN)CCN(c2cnc(Sc3cccc(Cl)c3Cl)c(N)n2)CC1
logD (physchem [2]): 2.5
IC50 [3]: 88 nM
IC50 [4]: 2400 nM
solubility (physchem [5]): 109 µM (≈ 43.4 µg/mL)
IC50 (KYSE-520 cell line; kyse-520): 2670 nM
IC50 [10]: 17 nM
logP (physchem [6]): 4.3

SMILES: Nc1nc(N2CCC3(CCC[C@H]3N)CC2)cnc1Sc1ccnc(N)c1Cl
logD (physchem [2]): -0.6
IC50 [3]: 24 nM
IC50 [4]: > 30000 nM
solubility (physchem [5]): 561 µM (≈ 228 µg/mL)
IC50 (KYSE-520 cell line; Homo sapiens, KYSE-520): 123 nM
logP (physchem [6]): 2.2

SMILES: CC1(CN)CCN(c2cnc(Sc3ccnc(N)c3Cl)c(N)n2)CC1
logD (physchem [2]): -0.9
IC50 [3]: 123 nM
IC50 [4]: > 30000 nM
solubility (physchem [5]): 437 µM (≈ 166 µg/mL)
IC50 (KYSE-520 cell line; Homo sapiens, KYSE-520): 851 nM
logP (physchem [6]): 2

SMILES: C[C@H]1OCC2(CCN(c3cnc(Sc4ccnc(N)c4Cl)c(N)n3)CC2)[C@@H]1N
solubility (physchem [5]): 382 µM (≈ 161 µg/mL)
IC50 (KYSE-520 cell line; kyse-520): 740 nM
